# Where a name gives a salt, the structure may show the parent alone. Read-outs that look alike come from different tables or passages of the source.
# Tests used:
# [1] = tested on: HUVECs; assay: High-content imaging cytotoxicity in HUVECs, 24 h; assay type: cell-based, human; details: Homo sapiens, HUVEC, 24 h, HUVEC; for viability at 0.01 µM / activity at 0.01 µM / viability at 0.1 µM / activity at 0.1 µM / viability at 1 µM / activity at 1 µM / viability at 10 µM / activity at 10 µM / viability at 100 µM / activity at 100 µM: 0.00 µM = 100.00; for viability at 0.1 µM / activity at 0.1 µM: 0.10 µM
# How it was run: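 Point-of-departure values come from four-parameter logistic fits of vehicle-normalized (0.5% DMSO) imaging readouts, cutoff one SD of vehicle means, 100μM where no concentration–response. Cells: HUVEC monolayers, passages 1–5, treated 24 h at 37°C, 5% CO2, then Hoechst 33342/MitoTracker Orange/calcein AM stained, imaged at 10×.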
# [2] = tested on: iCell endothelial cells (human iPSC-derived ECs); assay: High-content imaging cytotoxicity in iCell endothelial cells, 24 h; assay type: cell-based; details: Homo sapiens, Endothelial cell, 24 hr; for viability at 0.1 µM / activity at 0.1 µM: 0.10 µM
# How it was run: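 Readouts were vehicle-normalised and fitted to a four-parameter logistic model. POD was set at one SD beyond 0.5% DMSO control means, and 100 µM was assigned when no response was seen. Cells were monolayers of iCell endothelial cells imaged after 24 h compound exposure using nuclear, mitochondrial and calcein dyes.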
# [3] = HUVECs, 24 hr, read-out: huvec.cyto.24hr
# [4] = HUVECs, 24 hr, read-out: huvec.mito.24hr
# [5] = HUVECs, 24 hr, read-out: huvec.mitoint.24hr
# [6] = HUVECs, 24 hr, read-out: huvec.nma.24hr
# [7] = HUVECs, 24 hrs, read-out: huvec.tc.24hrs
# [8] = iPSC-EC, 0.00 µM control = 100.00, read-out: endo.cyto.24hr
# [9] = iPSC-EC, 0.00 µM control = 100.00, read-out: endo.mito.24hr
# [10] = iPSC-EC, 0.00 µM control = 100.00, read-out: endo.mitoint.24hr
# [11] = iPSC-EC, 0.00 µM control = 100.00, read-out: endo.nma.24hr
# [12] = iPSC-EC, 0.00 µM control = 100.00, read-out: endo.tc.24hrs
smiles,measurement,setting,value
Oc1ccccc1-c1ccc(Cl)cc1 [2'-OH-PCB 3],minimal effective concentration,"[1]; cyto, 24 hr, read-out: POD huvec.cyto.24hr",5.19 µM
same,minimal effective concentration,"[1]; mito, 24 hr, read-out: POD huvec.mito.24hr",4.06 µM
same,minimal effective concentration,"[1]; mitoint, 24 hr, read-out: POD huvec.mitoint.24hr",34.4 µM
same,minimal effective concentration,"[1]; nma, 24 hr, read-out: POD huvec.nma.24hr",1.6 µM
same,minimal effective concentration,"[1]; tc, 24 hr, read-out: POD huvec.tc.24hr",5.19 µM
same,minimal effective concentration,"[2]; endothelial cells (endo), cyto, read-out: POD endo.cyto.24hr",44.3 µM
same,minimal effective concentration,"[2]; endothelial cells (endo), mito, read-out: POD endo.mito.24hr",44.3 µM
same,minimal effective concentration,"[2]; endothelial cells (endo), mitoint, read-out: POD endo.mitoint.24hr",100 µM
same,minimal effective concentration,"[2]; endothelial cells (endo), nma, read-out: POD endo.nma.24hr",1.82 µM
same,minimal effective concentration,"[2]; endothelial cells (endo), tc, read-out: POD endo.tc.24hr",68.2 µM
O=S(=O)(O)Oc1cc(Cl)ccc1-c1ccccc1 [2-yl PCB 3 sulfate],viability at 0.01 µM,[1]; [3],95%
same,activity at 0.01 µM,[1]; [4],93.7%
same,activity at 0.01 µM,[1]; [5],96.9%
same,activity at 0.01 µM,[1]; [6],100%
same,viability at 0.1 µM,[1]; [3],105%
same,activity at 0.1 µM,[1]; [4],105%
same,activity at 0.1 µM,[1]; [5],103%
same,activity at 0.1 µM,[1]; [6],95.3%
same,viability at 1 µM,[1]; [3],95%
same,activity at 1 µM,[1]; [4],94.6%
same,activity at 1 µM,[1]; [5],92.6%
same,activity at 1 µM,[1]; [6],95.4%
same,viability at 10 µM,[1]; [3],83.5%
same,activity at 10 µM,[1]; [4],83.3%
same,activity at 10 µM,[1]; [5],97.9%
same,activity at 10 µM,[1]; [6],97.9%
same,viability at 100 µM,[1]; [3],93%
same,activity at 100 µM,[1]; [4],92.1%
same,activity at 100 µM,[1]; [5],93.3%
same,activity at 100 µM,[1]; [6],96%
same,minimal effective concentration,"[1]; HUVECs, 24 hr, top concentration 100.00 µM, read-out: huvec.cyto.24hr POD",100 µM
same,minimal effective concentration,"[1]; HUVECs, 24 hr, top concentration 100.00 µM, read-out: huvec.mito.24hr POD",100 µM
same,minimal effective concentration,"[1]; HUVECs, 24 hr, top concentration 100.00 µM, read-out: huvec.mitoint.24hr POD",100 µM
same,minimal effective concentration,"[1]; HUVECs, 24 hr, top concentration 100.00 µM, read-out: huvec.nma.24hr POD",100 µM
same,viability at 0.01 µM,[1]; [7],95%
same,viability at 0.1 µM,[1]; [7],105%
same,viability at 1 µM,[1]; [7],95%
same,viability at 10 µM,[1]; [7],83.5%
same,viability at 100 µM,[1]; [7],93%
same,minimal effective concentration,"[1]; HUVECs, 24 hrs, top concentration 100.00 µM, read-out: huvec.tc.24hrs POD",100 µM
same,viability at 0.01 µM,[2]; [8],93%
same,activity at 0.01 µM,[2]; [9],93.3%
same,activity at 0.01 µM,[2]; [10],114%
same,activity at 0.01 µM,[2]; [11],103%
same,viability at 0.01 µM,[2]; [12],93%
same,viability at 0.1 µM,[2]; [8],97.1%
same,activity at 0.1 µM,[2]; [9],97%
same,activity at 0.1 µM,[2]; [10],101%
same,activity at 0.1 µM,[2]; [11],100%
same,viability at 0.1 µM,[2]; [12],97.1%
same,viability at 1 µM,[2]; [8],97.8%
same,activity at 1 µM,[2]; [9],98.5%
same,activity at 1 µM,[2]; [10],104%
same,activity at 1 µM,[2]; [11],99.6%
same,viability at 1 µM,[2]; [12],97.8%
same,viability at 10 µM,[2]; [8],97.1%
same,activity at 10 µM,[2]; [9],97.8%
same,activity at 10 µM,[2]; [10],118%
same,activity at 10 µM,[2]; [11],99.1%
same,viability at 10 µM,[2]; [12],97.2%
same,viability at 100 µM,[2]; [8],102%
same,activity at 100 µM,[2]; [9],102%
same,activity at 100 µM,[2]; [10],99.3%
same,activity at 100 µM,[2]; [11],96.5%
same,viability at 100 µM,[2]; [12],102%
same,minimal effective concentration,"[2]; iPSC-EC, top concentration 100.00 µM, read-out: endo.cyto.24hr POD",100 µM
same,minimal effective concentration,"[2]; iPSC-EC, top concentration 100.00 µM, read-out: endo.mito.24hr POD",100 µM
same,minimal effective concentration,"[2]; iPSC-EC, top concentration 100.00 µM, read-out: endo.mitoint.24hr POD",100 µM
same,minimal effective concentration,"[2]; iPSC-EC, top concentration 100.00 µM, read-out: endo.nma.24hr POD",100 µM
same,minimal effective concentration,"[2]; iPSC-EC, top concentration 100.00 µM, read-out: endo.tc.24hrs POD",100 µM

# Reference: publication PMC7377239, “Cardiovascular Effects of Polychlorinated Biphenyls and Their Major Metabolites” (Environmental Health Perspectives, 2020)
